Assay results reported in patent US11279737B2, “Antimicrobial peptide variants and uses thereof” (ANTINBIO, INC., priority 2019, dated 2022).
In brackets after ≈: the same amount, converted by molar mass. Where a SMILES comes first, the peptide text is derived from it. Bridges are numbered along the chain shown (N, C = ends).

What was measured:
human erythrocytes = experiment: hemolytic assay; type: cell-based; conditions: peptide 0.5-500 μg/ml, 37° C., 60 minutes, FIG. 2
Protocol: For the hemolysis assays, human erythrocytes were obtained from healthy donors, washed 3 times using sterilized PBS and re-suspended to a concentration of 2% (v/v) with PBS. The hegrisin, HCN2016-01 peptide, and plectasin (control) were diluted to concentrations of 500, 250, 125, 62.5, 32, 16, 8, 4, 2, 1, and 0.5 μg/ml. A 100 μL solution of each peptide and a 100 μL suspension of red blood cells were mixed and added to the wells of a 96-well plate. PBS was used as negative control and Triton X-100 was used as a positive control.
The samples were incubated at 37° C. for 60 minutes and gently stirred during the incubation period. Then, the samples were centrifuged at 2000 rpm for 5 minutes. A total of 100 μL of the supernatant in each well was transferred to a new 96-well plate and absorbance was measured at 490 nm using a microplate reader (Molecular Devices, USA).
For hemolysis assays, human erythrocytes were obtained from healthy donors, washed 3 times using sterilized PBS, and re-suspended to a concentration of 2% (v/v) with PBS. The HCN2016-01 peptide (SEQ ID NO: 2) and plectasin (control) were diluted to concentrations of 500; 250; 125; 62.5; 32; 16; 8; 4; 2; 1; and 0.5 μg/ml. A 100 μL of each peptide solution was mixed with a 100 μL solution of a red blood cell suspension and added to separate wells of a 96-well plate. PBS was used as negative control and Triton X-100 was used as a positive control. The samples were incubated at 37° C. for 60 minutes and gently stirred during the incubation period. The samples were then centrifuged at 2000 rpm for 5 minutes. A total of 100 μL of the supernatant in each well was transferred to a new 96-well plate and absorbance was measured at 490 nm using a microplate reader (Molecular Devices, USA).

S. aureus ATCC 6538 [1] = tested on: S. aureus ATCC 6538
[2] = tested on: S. aureus MRSA ATCC 43300
[3] = tested on: S. epidermidis ATCC 14990
[4] = tested on: C. perfringens ATCC 13124
S. aureus ATCC 6538 [5] = experiment: inhibition zone assay; conditions: 10 μg peptide per hole, 37° C., 16-18 hours

SMILES: CC[C@H](C)[C@@H]1NC(=O)CNC(=O)CNC(=O)[C@H](Cc2ccccc2)NC(=O)[C@H](CCCCN)NC(=O)[C@@H]2CSSC[C@H](NC(=O)[C@H](CO)NC(=O)[C@H](Cc3c[nH]c4ccccc34)NC(=O)CN)C(=O)N[C@@H](CC(N)=O)C(=O)N[C@@H]([C@@H](C)CC)C(=O)N[C@@H](Cc3c[nH]c4ccccc34)C(=O)N[C@@H](CC(N)=O)C(=O)NCC(=O)N[C@@H](CC(N)=O)C(=O)N[C@@H](CC(=O)O)C(=O)N[C@@H](CCC(=O)O)C(=O)N3CCC[C@H]3C(=O)N[C@H]3CSSC[C@H](NC1=O)C(=O)N[C@@H](CCCCN)C(=O)N[C@H](C(=O)N[C@@H](Cc1ccc(O)cc1)C(=O)O)CSSC[C@H](NC(=O)[C@H](Cc1c[nH]cn1)NC(=O)[C@H](CCC(N)=O)NC(=O)[C@H](Cc1c[nH]cn1)NC3=O)C(=O)N[C@@H](CCCCN)C(=O)N[C@@H](CO)C(=O)N[C@@H]([C@@H](C)CC)C(=O)N[C@@H](CCCNC(=N)N)C(=O)NCC(=O)N[C@@H](Cc1ccc(O)cc1)C(=O)N[C@@H](CCCNC(=N)N)C(=O)NCC(=O)NCC(=O)N[C@@H](Cc1ccc(O)cc1)C(=O)N2 [HCN2016-01] (H-GWSCNIWNGNDEPCHQHCKSIRGYRGGYCKFGGICKCY-OH; disulfide 4-29, 14-35, 18-37 (inferred); N-terminus and C-terminus assumed)
- cell lysis (hemolysis) of human erythrocytes (human erythrocytes): no significant lysis
- Minimal inhibitory concentration (MIC) (S. aureus ATCC 6538 [1]; ATCC 6538): 0.30 µg/mL (≈ 0.0692 µM)
- activity against bacteria (in words) (S. aureus ATCC 6538 [1]; S. aureus ATCC 6538): strong activity
- antimicrobial activity compared to wild type hegrisin (in words) (S. aureus ATCC 6538 [1]; S. aureus ATCC 6538, lower MIC values): improved antimicrobial activity
- Minimal inhibitory concentration (MIC) ([2]; ATCC 43300): 0.73 µg/mL (≈ 0.168 µM)
- activity against bacteria (in words) ([2]; S. aureus MRSA ATCC 43300): strong activity
- antimicrobial activity compared to wild type hegrisin (in words) ([2]; S. aureus MRSA ATCC 43300): improved antimicrobial activity
- Minimal inhibitory concentration (MIC) ([3]; ATCC 14990): 0.31 µg/mL (≈ 0.0715 µM)
- activity against bacteria (in words) ([3]; S. epidermidis ATCC 14990): strong activity
- antimicrobial activity compared to wild type hegrisin (in words) ([3]; S. epidermidis ATCC 14990): improved antimicrobial activity
- Minimal inhibitory concentration (MIC) (B. subtilis ATCC 6633; ATCC 6633): 0.50 µg/mL (≈ 0.115 µM)
- activity against bacteria (in words) (B. subtilis ATCC 6633; B. subtilis ATCC 6633): strong activity
- Minimal inhibitory concentration (MIC) (L. lactis ATCC 19256): 0.50 µg/mL (≈ 0.115 µM)
- Minimal inhibitory concentration (MIC) (L. rhamnosus ATCC 14957): 32.0 µg/mL (≈ 7.38 µM)
- Minimal inhibitory concentration (MIC) (L. plantarum ATCC 14917): 16.0 µg/mL (≈ 3.69 µM)
- Minimal inhibitory concentration (MIC) (L. delbrueckii ATCC 9649; ATCC 9649): 8.0 µg/mL (≈ 1.85 µM)
- activity against bacteria (in words) (L. delbrueckii ATCC 9649; L. delbrueckii ATCC 9649): strong activity
- Minimal inhibitory concentration (MIC) (S. salivarius ATCC 19258; ATCC 19258): 4.0 µg/mL (≈ 0.923 µM)
- activity against bacteria (in words) (S. salivarius ATCC 19258; S. salivarius ATCC 19258): strong activity
- Minimal inhibitory concentration (MIC) (B. longum ATCC 15707; ATCC 15707): 8.0 µg/mL (≈ 1.85 µM)
- activity against bacteria (in words) (B. longum ATCC 15707; B. longum ATCC 15707): strong activity
- Minimal inhibitory concentration (MIC) (C. acnes ATCC 11827; ATCC 11827): 8.0 µg/mL (≈ 1.85 µM)
- activity against bacteria (in words) (C. acnes ATCC 11827; C. acnes ATCC 11827): strong activity
- activity against bacteria (in words) [4]: strong activity
- Minimal inhibitory concentration (MIC) ([4]; ATCC 13124): 6.81 µg/mL (≈ 1.57 µM)
- Minimal inhibitory concentration (MIC) (L. casei ATCC 393): >500.0 µg/mL
- Minimal inhibitory concentration (MIC) (E. coli ATCC 25922; ATCC 25922): >500.0 µg/mL
- activity against bacteria (in words) (E. coli ATCC 25922; Gram negative bacteria E. coli): minimal or no activity
- Activity (antimicrobial activity relative to unmodified hegrisin, zones of growth inhibition) (S. aureus ATCC 6538 [5]): 2
